# Results published in patent publication US20240238300A1, “TREATMENT METHODS FOR SUBJECTS WITH CANCER HAVING AN ABERRATION IN EGFR AND/OR HER2” (TAIHO PHARMACEUTICAL CO., LTD., priority 2021, published 2024).
# Where two headings read alike, the source gives them in different places.
# Columns and labels:
# [1] = brain penetrability after single oral administration; format: in vivo, male nude mice; conditions: male, nude, mouse
# Method: Brain penetrability of Compound (1) in nude mice. The brain penetrability of Compound (1) was confirmed by Kp,brain values at 0.5 and 1 hour in male nude mice following a single oral administration at 50 mg/kg (Table 6). Based on the brain penetrability study and brain and plasma protein binding studies, Kp,uu,brain was calculated to be 0.26±0.05 for 0.5 hour and 0.13±0.03 for 1 hour.
# [2] = molecular target: T1, human BCRP (Homo sapiens, UniProt Q9UNQ0); test: substrate susceptibility on human BCRP, bidirectional transcellular transport, BCRP/MDCK II cells; format: in vitro ADME; parameters: expressed in transfected cells; host or cells: MDCK II (canine kidney) cells expressing human BCRP; parent MDCK II as control
# T1 sequence (Q9UNQ0 1-655): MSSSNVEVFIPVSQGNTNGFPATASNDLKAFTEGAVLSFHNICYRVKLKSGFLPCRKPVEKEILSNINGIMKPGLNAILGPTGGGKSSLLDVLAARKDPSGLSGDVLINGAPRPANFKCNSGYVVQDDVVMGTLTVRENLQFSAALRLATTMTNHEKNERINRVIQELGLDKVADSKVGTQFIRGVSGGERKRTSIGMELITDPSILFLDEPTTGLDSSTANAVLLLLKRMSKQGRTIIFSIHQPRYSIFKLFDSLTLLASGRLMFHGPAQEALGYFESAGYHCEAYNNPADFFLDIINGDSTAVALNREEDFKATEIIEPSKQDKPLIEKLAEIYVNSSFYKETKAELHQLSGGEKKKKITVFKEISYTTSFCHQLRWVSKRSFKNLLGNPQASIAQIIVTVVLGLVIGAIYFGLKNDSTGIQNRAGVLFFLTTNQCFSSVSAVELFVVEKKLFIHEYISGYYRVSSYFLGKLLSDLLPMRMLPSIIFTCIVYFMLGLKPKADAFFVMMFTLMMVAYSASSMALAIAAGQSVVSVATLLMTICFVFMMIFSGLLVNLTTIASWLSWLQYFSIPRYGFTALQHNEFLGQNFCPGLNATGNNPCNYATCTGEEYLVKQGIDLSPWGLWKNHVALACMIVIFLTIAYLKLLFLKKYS
# Method: Substrate susceptibility of Compound (1) on human BCRP. Time-dependence of the bidirectional transcellular transport of 0.3, 0.5, 1, 3, and 30 μmol/L Compound (1) across human BCRP/Madin-Darby canine kidney II (MDCK II) cells and parent/MDCK II cells was analyzed.
# [3] = test system: NCI-N87 tumor fragment #6, clone 3; test: refractory T-DM1 monoclonal cell line model, comparison to DS-8201a; format: in vivo, male mice; conditions: for antitumor effect (tumor volume): 21 days
# Method: The obtained cell line was implanted into BALB/cAJcl-mu/nu male mice (8.0×10^6 cells in 100 μL of PBS/mouse, subcutaneous) for the efficacy test.
# The tumor volumes (TV, mm) and body weights of the mice were recorded.
# [4] = test system: NCI-N87 xenografts relapsed from T-mab and P-mab; test: refractory T-mab/P-mab model Step II; format: in vivo; conditions: for RTV (mean ± SE): Day 15 to Day 1 (Step II); for BWC (mean ± SE): Day 15 vs Day 1 (Step II); for T/C: Step II Day 15, vs T-mab + P-mab group; for Number of Death / TV (mean ± SE): Step II Day 15
# Method: Male nude mice (BALB/cAJcl-mu/mu) were implanted with NCI-N87 human gastric carcinoma (HER2 overexpressing); 1.0×10^7 cells in 100 μL of PBS were implanted subcutaneously per mouse.
# The tumor volumes (TV, mm^3) and body weights of the mice were recorded.
# [5] = test system: SK-BR-3 cells; test: feedback activation of HER3, downstream targets and apoptosis markers in SK-BR-3 cells; format: cell-based, human; conditions: 48 hours
# Description: The effect of Compound (1) on feedback activation of HER3, its downstream targets (ERK and AKT), and apoptosis markers (BIM and cleaved PARP) in SK-BR-3 cells was investigated. In addition, the same information for lapatinib and tucatinib (a reversible inhibitor of HER2) was obtained.
# [6] = molecular target: T2, human P-gp (Homo sapiens, UniProt P08183); test: substrate susceptibility on human P-gp, bidirectional transcellular transport, P-gp/LLC-PK1 cells; format: in vitro ADME
# T2 construct: expressed in transfected cells; host or cells: LLC-PK1 (porcine kidney) cells expressing human P-gp; mock/LLC-PK1 as control
# Method: (§1) Substrate susceptibility of Compound (1) on human P-gp. Time-dependence of the bidirectional transcellular transport of 1 μmol/L and 10 μmol/L Compound (1) across human P-gp/Lilly Laboratories Cell-Porcine Kidney 1 (LLC-PK1) cells and mock/LLC-PK1 cells was analyzed. Net flux ratios of some samples incubated with 1 μmol/L Compound (1) for 2 or 3 hours was not calculable as concentrations of these samples were below the lower limit of quantification. […] The net flux ratios of samples incubated with 10 μmol/L Compound (1) for 2, 3, and 4 hours were 1.4±0.4 1.7±0.3, and 1.5±0.2, respectively. The net flux ratios samples incubated with 10 μmol/L Compound (1) with 10 μmol/L zosuquidar for 2, 3, and 4 hours were 1.2±0.3, 1.2±0.1, and 1.1±0.1, respectively.
# [7] = test system: T3, P-gp; test: as above; format: in vitro ADME; conditions: human, LLC-PK1, with zosuquidar 10 μmol/L, read-out: net flux ratio
# T3 construct: expressed in transfected cells; host or cells: LLC-PK1 (porcine kidney) cells expressing human P-gp; mock/LLC-PK1 as control
# Method: as §1
# T2 sequence (P08183 whole entry): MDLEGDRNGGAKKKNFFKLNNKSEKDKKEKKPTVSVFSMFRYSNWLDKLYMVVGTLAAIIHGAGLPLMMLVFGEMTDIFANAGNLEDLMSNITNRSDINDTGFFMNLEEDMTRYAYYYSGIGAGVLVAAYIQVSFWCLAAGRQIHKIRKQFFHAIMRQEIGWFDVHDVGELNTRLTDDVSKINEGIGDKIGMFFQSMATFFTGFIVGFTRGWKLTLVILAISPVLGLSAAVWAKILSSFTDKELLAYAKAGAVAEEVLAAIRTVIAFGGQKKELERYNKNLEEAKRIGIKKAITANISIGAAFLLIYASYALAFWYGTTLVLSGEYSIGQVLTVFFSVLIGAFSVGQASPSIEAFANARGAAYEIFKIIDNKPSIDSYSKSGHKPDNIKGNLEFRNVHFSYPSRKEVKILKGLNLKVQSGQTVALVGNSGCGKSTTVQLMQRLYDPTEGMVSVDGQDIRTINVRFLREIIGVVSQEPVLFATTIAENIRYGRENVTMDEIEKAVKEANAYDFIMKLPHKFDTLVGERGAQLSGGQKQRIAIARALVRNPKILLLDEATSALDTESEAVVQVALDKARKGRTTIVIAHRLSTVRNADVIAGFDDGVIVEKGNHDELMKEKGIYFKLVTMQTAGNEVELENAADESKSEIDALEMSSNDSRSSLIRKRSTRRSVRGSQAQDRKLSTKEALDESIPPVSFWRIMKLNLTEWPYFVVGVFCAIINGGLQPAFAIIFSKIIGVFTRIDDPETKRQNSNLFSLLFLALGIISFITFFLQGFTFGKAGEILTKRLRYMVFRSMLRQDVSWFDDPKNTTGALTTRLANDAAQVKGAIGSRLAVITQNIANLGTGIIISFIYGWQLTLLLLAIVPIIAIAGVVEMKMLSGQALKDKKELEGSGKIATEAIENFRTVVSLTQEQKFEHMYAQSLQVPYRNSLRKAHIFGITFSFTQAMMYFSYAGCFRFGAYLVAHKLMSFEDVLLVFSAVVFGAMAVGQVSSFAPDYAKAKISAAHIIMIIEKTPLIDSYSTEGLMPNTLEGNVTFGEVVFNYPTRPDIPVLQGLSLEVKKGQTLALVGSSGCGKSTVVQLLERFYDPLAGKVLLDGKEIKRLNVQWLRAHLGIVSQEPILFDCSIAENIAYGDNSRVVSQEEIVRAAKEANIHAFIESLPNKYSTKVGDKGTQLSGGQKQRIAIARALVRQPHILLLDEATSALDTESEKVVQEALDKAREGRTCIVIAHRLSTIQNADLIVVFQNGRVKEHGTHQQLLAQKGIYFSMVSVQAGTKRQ
compound,measurement,setting,value
"C=CC(=O)N1C[C@H](n2c(C#CC3CC3)c(C(=O)N[C@H](C)c3ccccc3)c3c(N)ncnc32)C[C@@H]1C [Compound (1), 7-((3R,5S)-1-acryloyl-5-methylpyrrolidin-3-yl)-4-amino-6-(cyclopropylethynyl)-N—((R)-1-phenylethyl)-7H-pyrrolo[2,3-d]pyrimidine-5-carboxamide]",Kp uu at 0.5 h,"[1]; brain and plasma (unbound), 0.5 hr after single oral 50 mg/kg",0.26 ± 0.05
same,Kp uu at 1 h,"[1]; brain and plasma (unbound), 1 hr after single oral 50 mg/kg",0.13 ± 0.03
same,Kp at 0.5 h,"[1]; brain, 0.5 hr after single oral 50 mg/kg",0.415 ± 0.08
same,concentration at 0.5 h,"[1]; brain, 0.5 hr after single oral 50 mg/kg, read-out: Brain Concentration",3590 ± 600 ng/g
same,Kp at 1 h,"[1]; brain, 1 hr after single oral 50 mg/kg",0.206 ± 0.042
same,concentration at 1 h,"[1]; brain, 1 hr after single oral 50 mg/kg, read-out: Brain Concentration",1290 ± 440 ng/g
same,concentration at 0.5 h,"[1]; plasma, 0.5 hr after single oral 50 mg/kg, read-out: Plasma Concentration",8720 ± 650 ng/mL
same,concentration at 1 h,"[1]; plasma, 1 hr after single oral 50 mg/kg, read-out: Plasma Concentration",6170 ± 910 ng/mL
same,concentration at which transport via human BCRP is saturable,[2],> 1000 nM
same,net flux ratio,"[2]; 0.3 μmol/L Compound (1), 4 hours",1.5±0.6
same,net flux ratio,"[2]; 0.5 μmol/L Compound (1) with 10 μmol/L Ko143, 3 hours",1.2±0.2
same,net flux ratio,"[2]; 0.5 μmol/L Compound (1) with 10 μmol/L Ko143, 4 hours",1.2±0.2
same,net flux ratio,"[2]; 0.5 μmol/L Compound (1), 2 hours",1.9±0.9
same,net flux ratio,"[2]; 0.5 μmol/L Compound (1), 3 hours",3.0±0.9
same,net flux ratio,"[2]; 0.5 μmol/L Compound (1), 4 hours",2.7±0.8
same,net flux ratio,"[2]; 1 μmol/L Compound (1) with 10 μmol/L Ko143, 4 hours",1.4±0.2
same,net flux ratio,"[2]; 1 μmol/L Compound (1), 2 hours",2.3±0.7
same,net flux ratio,"[2]; 1 μmol/L Compound (1), 3 hours",1.8±0.4
same,net flux ratio,"[2]; 1 μmol/L Compound (1), 4 hours",2.2±0.7
same,net flux ratio,"[2]; 3 μmol/L Compound (1), 2 hours",2.0±0.3
same,net flux ratio,"[2]; 3 μmol/L Compound (1), 3 hours",1.6±0.3
same,net flux ratio,"[2]; 3 μmol/L Compound (1), 4 hours",1.5±0.2
same,net flux ratio,"[2]; 30 μmol/L Compound (1), 2 hours",1.4±0.3
same,net flux ratio,"[2]; 30 μmol/L Compound (1), 3 hours",1.1±0.1
same,net flux ratio,"[2]; 30 μmol/L Compound (1), 4 hours",1.2±0.1
same,substrate susceptibility on human BCRP,[2]; criterion net flux ratio exceeding 2,substrate of BCRP
same,antitumor effect (tumor volume),[3]; 12.5 mg/kg/day PO once per day,arresting tumor growth
same,antitumor effect (tumor volume),[3]; 20 mg/kg/day PO once per day,inducing tumor regression
same,body weight loss,[3]; 12.5 or 20 mg/kg,did not cause body weight loss
same,body weight loss (tolerance),[4]; 12.5 and 25 mg/kg/day,did not cause severe body weight loss
same,RTV (mean ± SE),[4]; 12.5 mg/kg/day po Days 1-14,1.2
same,RTV (mean ± SE),[4]; 25 mg/kg/day po Days 1-14,1.0
same,BWC (mean ± SE),[4]; 12.5 mg/kg/day po Days 1-14,−1.2%
same,BWC (mean ± SE),[4]; 25 mg/kg/day po Days 1-14,−4.4%
same,T/C,[4]; 12.5 mg/kg/day po Days 1-14,52.5%
same,T/C,[4]; 25 mg/kg/day po Days 1-14,46.1%
same,Number of Death,[4]; 12.5 mg/kg/day po Days 1-14,0
same,TV (mean ± SE),[4]; 12.5 mg/kg/day po Days 1-14,412.5 mm^3
same,Number of Death,[4]; 25 mg/kg/day po Days 1-14,0
same,TV (mean ± SE),[4]; 25 mg/kg/day po Days 1-14,362.4 mm^3
same,BIM and cleaved PARP,[5]; 10 to 100 nmol/L,markedly increased
same,"phosphorylation of HER2, HER3, AKT, and ERK",[5]; concentrations starting as low as 10 nmol/L,sustained inhibition
same,net flux ratio,"[6]; 1 μmol/L Compound (1), 4 hours, without zosuquidar",4.7±0.7
same,net flux ratio,"[6]; 10 μmol/L Compound (1) with 10 μmol/L zosuquidar, 3 hours",1.2±0.1
same,net flux ratio,"[6]; 10 μmol/L Compound (1), 2 hours",1.4±0.4
same,net flux ratio,"[6]; 10 μmol/L Compound (1), 3 hours",1.7±0.3
same,net flux ratio,"[6]; 10 μmol/L Compound (1), 4 hours",1.5±0.2
same,substrate susceptibility on human P-gp,[6]; transport saturable by increase of concentration,substrate of P-gp
same,"efflux ratio at 4 h, 1 μmol/L","[7]; 1 μmol/L Compound (1), 4 hours, with 10 μmol/L zosuquidar",1.5 ± 0.6
same,"efflux ratio at 2 h, 10 μmol/L","[7]; 10 μmol/L Compound (1) with 10 μmol/L zosuquidar, 2 hours",1.2 ± 0.3
same,"efflux ratio at 4 h, 10 μmol/L","[7]; 10 μmol/L Compound (1) with 10 μmol/L zosuquidar, 4 hours",1.1 ± 0.1
